Measurements reported in patent US20120029187A1, “HALOALKYLSULFONANILIDE DERIVATIVE” (Nissan Chemical Industries, Ltd., priority 2009, published 2012).

How the values were obtained:
Type in all cases: in vivo
ducksalad [1] = assay: Test Example 2: herbicidal effects during the vegetation period under submerged conditions; conditions: treatment during the vegetation period under submerged conditions; dose 2.52 g/a
Method in brief: (§1)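 Barnyardgrass, bulrush and ducksalad were co-sown in alluvial soil flooded to 4 cm and grown in a greenhouse at 25 to 30° C. At the 1- or 2-leaf stage, water-diluted emulsifiable concentrates went onto the water surface at set doses (g/a). Herbicidal effect was scored three weeks later on a graded scale.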

bulrush [2] = assay: as above; conditions: treatment during the vegetation period under submerged conditions; dose 2.52 g/a
Method in brief: as §1

barnyardgrass [3] = assay: as above; conditions: treatment during the vegetation period under submerged conditions; dose 2.52 g/a
Method in brief: as §1

water foxtail [4] = assay: Test Example 4: herbicidal effect in foliage treatment; conditions: dose 3.2 g/a, three weeks after application
Method in brief: (§2)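 Weeds and crops sown in sterilized diluvial soil under ~1.5 cm cover and grown in greenhouse at 25 to 30° C. At 14 days, water-diluted emulsifiable concentrate sprayed onto foliage at set doses (g/a); herbicidal effect scored on a rating scale three weeks after application.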

common lambsquater [5] = assay: as above; conditions: dose 3.2 g/a, three weeks after application
Method in brief: as §2

Italian ryegrass [6] = assay: as above; conditions: dose 3.2 g/a, three weeks after application
Method in brief: as §2

posumbu knotweed = assay: as above; conditions: dose 3.2 g/a, three weeks after application
Method in brief: as §2

giant foxtail [7] = assay: as above; conditions: dose 3.2 g/a, three weeks after application
Method in brief: as §2

common ragweed [8] = assay: as above; conditions: dose 3.2 g/a, three weeks after application
Method in brief: as §2

beadstraw = assay: as above; conditions: dose 3.2 g/a, three weeks after application
Method in brief: as §2

wild oat [9] = assay: as above; conditions: dose 3.2 g/a, three weeks after application
Method in brief: as §2

velvetleaf [10] = assay: as above; conditions: dose 3.2 g/a, three weeks after application
Method in brief: as §2

common chickweed [11] = assay: as above; conditions: dose 3.2 g/a, three weeks after application
Method in brief: as §2

barnyardgrass [12] = assay: as above; conditions: dose 3.2 g/a, three weeks after application
Method in brief: as §2

large crabgrass [13] = assay: as above; conditions: dose 3.2 g/a, three weeks after application
Method in brief: as §2

redroot pigweed [14] = assay: as above; conditions: dose 3.2 g/a, three weeks after application
Method in brief: as §2

water foxtail [15] = assay: Test Example 3: herbicidal effects in soil treatment; conditions: dose 3.2 g/a
Method in brief: (§3)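 Seeds were sown in sterilized diluvial soil and covered with about 1.5 cm of soil. Compounds, formulated as emulsifiable concentrates and diluted with water, were sprayed evenly over the soil surface at set doses in g/a. Herbicidal effect was scored on a rating scale three weeks later.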

common lambsquater [16] = assay: as above; conditions: dose 3.2 g/a
Method in brief: as §3

Italian ryegrass [17] = assay: as above; conditions: dose 3.2 g/a
Method in brief: as §3

giant foxtail [18] = assay: as above; conditions: dose 3.2 g/a
Method in brief: as §3

common ragweed [19] = assay: as above; conditions: dose 3.2 g/a
Method in brief: as §3

wild oat [20] = assay: as above; conditions: dose 3.2 g/a
Method in brief: as §3

velvetleaf [21] = assay: as above; conditions: dose 3.2 g/a
Method in brief: as §3

common chickweed [22] = assay: as above; conditions: dose 3.2 g/a
Method in brief: as §3

barnyardgrass [23] = assay: as above; conditions: dose 3.2 g/a
Method in brief: as §3

large crabgrass [24] = assay: as above; conditions: dose 3.2 g/a
Method in brief: as §3

redroot pigweed [25] = assay: as above; conditions: dose 3.2 g/a
Method in brief: as §3

ducksalad [26] = assay: Test Example 1: herbicidal effects in preemergence treatment under submerged conditions; conditions: dose 2.52 g/a
Method in brief: (§4)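 Submerged conditions, 4 cm water over alluvial soil. Weeds sown and 2.5-leaf rice transplanted; compound applied preemergence to water surface, doses in g per are. Greenhouse, 25 to 30° C., three weeks, then 0–5 mortality rating.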

bulrush [27] = assay: as above; conditions: dose 2.52 g/a
Method in brief: as §4

barnyardgrass [28] = assay: as above; conditions: dose 2.52 g/a
Method in brief: as §4

## CC1CN(Cc2ccccc2N(C(=O)OCCCl)S(=O)(=O)C(F)(F)F)C(=O)CO1 (stereo not drawn) [Compound I-8]
Ducksalad [1]
  C: ducksalad, herbicidal effect (evaluation scale 0-5): 5 (mortality of 90% or above (nearly complete death))
Bulrush [2]
  B: bulrush, herbicidal effect (evaluation scale 0-5): 5 (mortality of 90% or above (nearly complete death))
Barnyardgrass [3]
  A: barnyardgrass, herbicidal effect (evaluation scale 0-5): 5 (mortality of 90% or above (nearly complete death))
Water foxtail [4]
  G: water foxtail, herbicidal effect: 5 (mortality of 90% or above (nearly complete death))
Common lambsquater [5]
  L: common lambsquater, herbicidal effect: 2 (mortality of at least 20% and less than 40%)
Italian ryegrass [6]
  H: Italian ryegrass, herbicidal effect: 4 (mortality of at least 70% and less than 90%)
Posumbu knotweed
  M: posumbu knotweed, herbicidal effect: 5 (mortality of 90% or above (nearly complete death))
Giant foxtail [7]
  E: giant foxtail, herbicidal effect: 4 (mortality of at least 70% and less than 90%)
Common ragweed [8]
  J: common ragweed, herbicidal effect: 5 (mortality of 90% or above (nearly complete death))
beadstraw
  O: beadstraw, herbicidal effect: 4 (mortality of at least 70% and less than 90%)
Wild oat [9]
  F: wild oat, herbicidal effect: 1 (mortality of at least 5% and less than 20%)
Velvetleaf [10]
  I: velvetleaf, herbicidal effect: 5 (mortality of 90% or above (nearly complete death))
Common chickweed [11]
  N: common chickweed, herbicidal effect: 3 (mortality of at least 40% and less than 70%)
Barnyardgrass [12]
  A: barnyardgrass, herbicidal effect: 5 (mortality of 90% or above (nearly complete death))
Large crabgrass [13]
  D: large crabgrass, herbicidal effect: 4 (mortality of at least 70% and less than 90%)
Redroot pigweed [14]
  K: redroot pigweed, herbicidal effect: 4 (mortality of at least 70% and less than 90%)
Water foxtail [15]
  G: water foxtail, herbicidal effect (evaluation scale 0-5): 5 (mortality of 90% or above (nearly complete death))
Common lambsquater [16]
  L: common lambsquater, herbicidal effect (evaluation scale 0-5): 3 (mortality of at least 40% and less than 70%)
Italian ryegrass [17]
  H: Italian ryegrass, herbicidal effect (evaluation scale 0-5): 5 (mortality of 90% or above (nearly complete death))
Giant foxtail [18]
  E: giant foxtail, herbicidal effect (evaluation scale 0-5): 4 (mortality of at least 70% and less than 90%)
Common ragweed [19]
  J: common ragweed, herbicidal effect (evaluation scale 0-5): 5 (mortality of 90% or above (nearly complete death))
Wild oat [20]
  F: wild oat, herbicidal effect (evaluation scale 0-5): 1 (mortality of at least 5% and less than 20%)
Velvetleaf [21]
  I: velvetleaf, herbicidal effect (evaluation scale 0-5): 5 (mortality of 90% or above (nearly complete death))
Common chickweed [22]
  N: common chickweed, herbicidal effect (evaluation scale 0-5): 5 (mortality of 90% or above (nearly complete death))
Barnyardgrass [23]
  A: barnyardgrass, herbicidal effect (evaluation scale 0-5): 5 (mortality of 90% or above (nearly complete death))
Large crabgrass [24]
  D: large crabgrass, herbicidal effect (evaluation scale 0-5): 5 (mortality of 90% or above (nearly complete death))
Redroot pigweed [25]
  K: redroot pigweed, herbicidal effect (evaluation scale 0-5): 5 (mortality of 90% or above (nearly complete death))
Ducksalad [26]
  C: ducksalad, herbicidal effect (evaluation scale 0-5): 5 (mortality of 90% or above (nearly complete death))
Bulrush [27]
  B: bulrush, herbicidal effect (evaluation scale 0-5): 5 (mortality of 90% or above (nearly complete death))
Barnyardgrass [28]
  A: barnyardgrass, herbicidal effect (evaluation scale 0-5): 5 (mortality of 90% or above (nearly complete death))
